This is an account of results in ChEMBL document CHEMBL1201862, “PubChem BioAssay data set” (2004).

Each structure is given as a SMILES string.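 Test compounds were applied to cells in 96-well plates for 48 hours at 5 doses. GI50 = concentration required for 50% inhibition of growth.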 Activity calls are given as the source filed them. No stated cut-off is given here; in the data, active = GI50 up to about 1.1 µM and inactive = higher.

Test systems include NCI-H226; NCI-H522; NCI/ADR-RES; SK-MEL-5; ACHN; OVCAR-5; HCT-116; HOP-62; Malme-3M; HCT-15; UO-31; OVCAR-3; 786-0; RPMI-8226; CAKI-1; SF-268; COLO 205; K562; U-251; NCI-H23.
Holding throughout (test): NCI anticancer screen, dose series, 48 h

Regarding `COc1cc([C@@H]2c3[nH]c4ccccc4c3C(Nc3ccc([N+](=O)[O-])cc3)[C@H]3COC(=O)N23)cc(OC)c1O` (stereo not given in full), the GI50 in the assay on NCI-H226 is 0.138 µM (active); in the assay with NCI-H522, 0.407 µM (active); in the assay on NCI/ADR-RES, > 86.3 µM (inactive); with SK-MEL-5, 0.0914 µM (active); in the assay with ACHN, 0.118 µM (active); in the assay with OVCAR-5 it was 0.369 µM (active). For the same molecule, the GI50 is 0.365 µM (active) with HCT-116; 0.0873 µM (active) with HOP-62; 0.161 µM (active) in the assay on Malme-3M; 1.96 µM in the assay on HCT-15; 1.27 µM (inactive) in the assay with UO-31; 0.382 µM (active) in the assay with OVCAR-3. Moreover, the GI50 in the assay with 786-0 is 0.177 µM (active); in the assay with RPMI-8226 it was 0.0652 µM (active); with CAKI-1 it was 0.247 µM (active); in the assay with SF-268, 0.299 µM (active); in the assay on COLO 205, 0.548 µM (active); in the assay on K562 it was 0.179 µM (active). The GI50 in the assay with U-251 is 0.147 µM (active); with NCI-H23 it was 0.111 µM (active).

As for `O=C(O)CC(NC(=O)Nc1ccc([N+](=O)[O-])cc1)C(=O)Nc1ccc([N+](=O)[O-])cc1` (stereo not given), the GI50 with NCI-H226 is > 100 µM (inactive); in the assay on NCI-H522, > 100 µM (inactive); with NCI/ADR-RES, > 100 µM (inactive); in the assay with SK-MEL-5 it was 50.8 µM (inactive); with ACHN, > 100 µM (inactive); in the assay with OVCAR-5, > 100 µM (inactive). Moreover, the GI50 in the assay with HCT-116 was > 100 µM (inactive); in the assay on HOP-62, > 100 µM (inactive); in the assay on Malme-3M, > 100 µM (inactive); in the assay on HCT-15, more than 100 µM; in the assay on UO-31, > 100 µM (inactive); with OVCAR-3, > 100 µM (inactive). The GI50 is > 100 µM (inactive) in the assay with 786-0; > 100 µM (inactive) in the assay with RPMI-8226; > 100 µM (inactive) with CAKI-1; 9.44 µM (inactive) in the assay with SF-268; > 100 µM (inactive) in the assay with COLO 205; > 100 µM (inactive) in the assay with K562. Further, the GI50 in the assay on U-251 and in the assay with NCI-H23 was > 100 µM (inactive) throughout.

With `COc1cc(C[S+]([O-])c2ccc(O)cc2)cc(OC)c1OC` (stereo not given), the GI50 in the assay on NCI-H226, in the assay on NCI-H522, in the assay with NCI/ADR-RES, with SK-MEL-5, in the assay on ACHN and in the assay with OVCAR-5 was > 100 µM (inactive) in each case. For the same molecule, the GI50 is > 100 µM (inactive) with HCT-116; > 100 µM (inactive) in the assay with HOP-62; > 100 µM (inactive) with Malme-3M; more than 100 µM with HCT-15; 66.2 µM (inactive) in the assay with UO-31; > 100 µM (inactive) in the assay with OVCAR-3. The GI50 in the assay with 786-0, with RPMI-8226, in the assay with CAKI-1, in the assay with SF-268, in the assay with COLO 205 and in the assay with K562 was > 100 µM (inactive) throughout. In addition, the GI50 in the assay with U-251 and in the assay with NCI-H23 was > 100 µM (inactive) throughout.

Take `O=C(c1ccccc1)c1ccc2[nH]c(-c3c(Cl)c(Cl)c(Cl)c(Cl)c3C(=O)N/N=C\C=C\c3ccccc3)nc2c1`: the GI50 is 42.8 µM (inactive) in the assay with NCI-H226; 26.9 µM (inactive) in the assay on NCI-H522; > 100 µM (inactive) in the assay with NCI/ADR-RES; 26.9 µM (inactive) in the assay with SK-MEL-5; 19.8 µM (inactive) with ACHN; > 100 µM (inactive) in the assay with OVCAR-5. Also, the GI50 is 58.6 µM (inactive) in the assay with HCT-116; 54.1 µM (inactive) in the assay with HOP-62; 57.3 µM (inactive) in the assay with Malme-3M; 32.5 µM with HCT-15; 39.5 µM (inactive) in the assay with UO-31; 25.1 µM (inactive) in the assay on OVCAR-3. The GI50 with 786-0 was 35.8 µM (inactive); with RPMI-8226, 17.5 µM (inactive); in the assay with CAKI-1 it was 77.4 µM (inactive); with SF-268, 38.6 µM (inactive); with COLO 205 it was 30.5 µM (inactive); in the assay with K562, 19.4 µM (inactive). The GI50 was 68.9 µM (inactive) in the assay on U-251 and 59.3 µM (inactive) in the assay with NCI-H23.

Take `CC1=C(O)C(=O)c2ccccc2C1=O`: the GI50 in the assay with NCI-H226 was > 100 µM (inactive); in the assay on NCI-H522 it was 47.9 µM (inactive); with NCI/ADR-RES, > 100 µM (inactive); in the assay with SK-MEL-5, 4.45 µM (inactive); in the assay on ACHN it was 58.7 µM (inactive); in the assay with OVCAR-5, > 100 µM (inactive). Further, the GI50 in the assay on HCT-116 was > 100 µM (inactive); in the assay on HOP-62 it was > 100 µM (inactive); in the assay with Malme-3M, 9.02 µM (inactive); in the assay on HCT-15 it was 27 µM; with UO-31 it was 21.5 µM (inactive); in the assay on OVCAR-3, 43.4 µM (inactive). Also, the GI50 in the assay with 786-0 was 71.9 µM (inactive); with RPMI-8226, 18.6 µM (inactive); with CAKI-1, > 100 µM (inactive); in the assay on SF-268, 94.6 µM (inactive); in the assay on COLO 205, > 100 µM (inactive); with K562 it was 78.5 µM (inactive). In addition, the GI50 with U-251 was 34 µM (inactive); with NCI-H23, 12.3 µM (inactive).
